Measurements as given in article PMC11878239, “Biochemical investigations using mass spectrometry to monitor JMJD6-catalysed hydroxylation of multi-lysine containing bromodomain-derived substrates” (RSC Chemical Biology, 2025).
Entries after “also recorded” stand apart in the source; their conditions may differ.

Experiments:
full-length His6-JMJD6 [1] = target: T1, full-length His6-JMJD6 (Homo sapiens, UniProt Q6NYC1); assay: SPE-MS kinetics of JMJD6 for O2; assay type: biochemical
T1 construct: An enzyme mixture (10 μL) containing full-length His6-JMJD6 (5 μM; final concentration: 0.05 μM); made in house; host or cells: Escherichia coli BL21 (DE3), pET-28a(+) plasmid
Description: (§1) Recombinant human JMJD6 (full length with a N-terminal His6-tag) was produced in Escherichia coli BL21 (DE3) cells using a pET-28a(+) plasmid and purified by standard Ni(II)-affinity size-exclusion chromatography, as previously reported.[40] […] Purified JMJD6 was stored at −78 °C; fresh aliquots were used for all JMJD6 assays.
Assays to determine the kinetic parameters of JMJD6 for O2 were performed in 2 mL gas-tight glass vials (Sigma-Aldrich) in independent triplicates. 50 mM Tris buffer (pH 7.5; 0.95 mL) was incubated in a 2 mL gas-tight glass vial at 37 °C for 30 min with a fixed O2 concentration (in N2; specified in Fig S9, ESI ^†), adjusted using a mass flow controller. […] The JMJD6-catalysed reaction was performed at 37 °C at a fixed O2 concentration and was stopped after the reaction time specified (Fig. S9, ESI ^†) by the addition of 20%v/v aqueous formic acid (100 μL) and analysed by SPE-MS. The %-concentration of O2 in N2, adjusted with a mass flow controller, was converted into an O2 concentration [μM] by calibration using a standard (i.e., y[μM] = 9.026·x[%]).[100] Data were analysed by SPE-MS as described above to calculate apparent JMJD6 kinetic parameters for O2.

full-length His6-JMJD6 [2] = target: T1, full-length His6-JMJD6; assay: SPE-MS kinetics of JMJD6-catalysed lysyl hydroxylation (2OG, Fe(II), LAA, BRD-derived peptides); assay type: biochemical; conditions: for tri- or higher-order hydroxylation: 0.05 μM JMJD6, SPE-MS time courses
Description: as §1
Peptides were used as 10 mM stock solutions in DMSO (Sigma-Aldrich; BioUltra grade).
(§2) Assay samples were aspirated under vacuum for 0.4 s, then loaded onto a C4 solid phase extraction (SPE) cartridge. After loading, the C4 SPE cartridge was washed with 0.1%v/v aqueous formic acid to remove non-volatile buffer salts (5 s, 1.5 mL min^−1). The peptide was eluted from the SPE cartridge with 0.1%v/v aqueous formic acid in 75/25v/v acetonitrile/water into the mass spectrometer (5 s, 1.6 mL min^−1) and the SPE cartridge re-equilibrated with 0.1%v/v aqueous formic acid (1 s, 1.25 mL min^−1).
Peaks corresponding to the m/z +5 charge states of the BRD-derived substrate peptide and the hydroxylated product peptides were extracted from the ion chromatogram and integrated using RapidFire Integrator 4.3.0 (Agilent). Peak area data were exported into Microsoft Excel and used to calculate the relative abundance of the mono-hydroxylated product peptide using the following equation: […]
The concentration of the mono-hydroxylated product peptide was calculated by multiplying the %-fraction of the mono-hydroxylated product peptide by the initial concentration of the substrate peptide employed in the assay. Initial reaction velocities were then calculated and fitted to a Michaelis–Menten plot using nonlinear regression (GraphPad Prism 5).

full-length His6-JMJD6 [3] = target: T1, full-length His6-JMJD6; assay: SPE-MS time-course of JMJD6-catalysed hydroxylation of BRD-derived peptides; assay type: biochemical; conditions: 0.05 μM JMJD6, 2 μM peptide, 2OG 200 μM, FAS 2 μM, LAA 100 μM, Tris 50 mM pH 7.5
Description: Fig. 2 JMJD6-catalysed hydroxylation of homologous 40 mer peptides derived from bromodomain-containing proteins BRD2, BRD3, and BRD4. (a)–(c) Red MS spectra: JMJD6-catalysed hydroxylation after 10 min of (a) BRD2_520–559, (b) BRD3_463–502, and (c) BRD4_511–550. Black MS spectra: no enzyme controls. (d)–(f) JMJD6-catalysed hydroxylation of (d) BRD2_520–559, (e) BRD3_463–502, and (f) BRD4_511–550 showing the relative abundance of the non-hydroxylated substrate (orange circles), mono-hydroxylated product (green squares), di-hydroxylated product (purple triangles) and tri-hydroxylated product (light blue diamonds) over time. Data are means of three independent runs (n = 3; means ± SD).
as §2, with “The JMJD6-catalysed hydroxylation of the BRD-derived substrate peptide was monitored at ambient temperature by SPE-MS using a RapidFire RF 365 high-throughput sampling robot (Agilent) attached to an iFunnel Agilent 6550 accurate mass quadrupole time-of-flight (Q-TOF) mass spectrometer, which was operated in the positive ionization mode. Assay” for “Assay”
Peaks corresponding to the m/z +5 charge states of the BRD-derived substrate peptide and the hydroxylated product peptides were extracted from the ion chromatogram and integrated using RapidFire Integrator 4.3.0 (Agilent). Peak area data were exported into Microsoft Excel and used to calculate the relative abundance of the mono-hydroxylated product peptide using the following equation:
% of mono-hydroxylated product peptide = 100 × (integral of mono-hydroxylated product peptide)/(integral of non-hydroxylated substrate peptide + sum of integrals of all hydroxylated product peptides). Note that for the time-period used to calculate initial reaction velocities, negligible amounts of multi-hydroxylated product peptide were observed (<5%); therefore, the sum of integrals of all hydroxylated product peptides ≈ the integral of the mono-hydroxylated product peptide.

[4] = retention on SPE cartridges; assay type: physicochemical; conditions: C4 SPE cartridge
Description: as §2, with “The JMJD6-catalysed hydroxylation of the BRD-derived substrate peptide was monitored at ambient temperature by SPE-MS using a RapidFire RF 365 high-throughput sampling robot (Agilent) attached to an iFunnel Agilent 6550 accurate mass quadrupole time-of-flight (Q-TOF) mass spectrometer, which was operated in the positive ionization mode. Assay” for “Assay”

- apparent maximum velocity v^app max (full-length His6-JMJD6 [2]; BRD peptide substrate varied, 0.05 μM full-length His6-JMJD6, 2OG 200 μM, FAS 2 μM, LAA 100 μM, 50 mM Tris pH 7.5, ambient temperature, mono-hydroxylation, substrate inhibition fit, mean ± SD n = 3): 5.8 ± 1.2 nM/s
- K m (full-length His6-JMJD6 [2]; BRD peptide substrate varied, 0.05 μM full-length His6-JMJD6, 2OG 200 μM, FAS 2 μM, LAA 100 μM, 50 mM Tris pH 7.5, ambient temperature, substrate inhibition fit, mean ± SD n = 3, read-out: Michaelis constant Km (K^app m)): 0.62 ± 0.26 µM
- turnover number kcat (k^app cat) (full-length His6-JMJD6 [2]; BRD peptide substrate varied, 0.05 μM full-length His6-JMJD6, 2OG 200 μM, pH 7.5, SPE-MS, calculated from v^app max assuming active JMJD6 = total enzyme, n = 3): 0.12 ± 0.02 s⁻¹
- catalytic efficiency kcat/Km (full-length His6-JMJD6 [2]; BRD peptide substrate varied, 0.05 μM full-length His6-JMJD6, 2OG 200 μM, pH 7.5, SPE-MS, n = 3): 190000 ± 80000 M⁻¹ s⁻¹
- relative abundance of mono-hydroxylated peptide at plateau (full-length His6-JMJD6 [2]; absence of LAA, after ~10 min, 50 nM JMJD6, 2OG 200 μM, FAS 2 μM, peptide 2 μM, pH 7.5, n = 3): ~15%
- substrate inhibition of JMJD6 catalysis (full-length His6-JMJD6 [2]; high substrate concentrations (>2 μM)): inhibit JMJD6 catalysis
- number of hydroxylation products observed (+16 Da mass shifts) (full-length His6-JMJD6 [3]; initial time-course, n = 3): two
Sequence: LAELQEQLKAVHEQLAALSQPQQNKPKKKEKDKKEKKKEK [BRD4_511–550, 40-mer peptide fragment derived from human BRD4, JMJD6 substrate, prepared by SPPS]
- JMJD6-catalysed hydroxylation at low O2 (full-length His6-JMJD6 [1]; [O2] < 2.5%): inhibited at low oxygen concentrations; also recorded: sensitive to low O2 concentrations
- di- or higher-order hydroxylation (full-length His6-JMJD6 [1]; varied O2, 37 °C, 60 or 90 s): no evidence for di- (or higher order) hydroxylation
- tri- or higher-order hydroxylation (full-length His6-JMJD6 [2]; ambient temperature): negligible levels of BRD4_511–550 hydroxylations beyond mono-hydroxylation
- tri- or higher-order hydroxylation (full-length His6-JMJD6 [2]; ambient temperature, listed as BRD4511-550): No evidence for triple; also recorded: No evidence for triple (or higher order)
- hydroxylation by JMJD6 (in words) (full-length His6-JMJD6 [3]; time-course, SPE-MS): efficiently hydroxylated by isolated recombinant JMJD6; also recorded: mono-hydroxylated more efficiently than BRD3_463–502 whilst showing substantially lower levels of di-hydroxylation and no tri-hydroxylation by comparison with BRD2_520–559; also recorded: multiple hydroxylations
- retention on SPE cartridge [4]: efficiently retained on a C4 SPE cartridge
